# Like-named read-outs stand apart in the source and are kept apart here. Where a SMILES comes first, the peptide text is derived from it.
# Assays:
# [1] = target: T1, human oxytocin receptor (OTR) (Homo sapiens, UniProt P30559); test: NIMH PDSP FLIPR-TETRA Ca2+-mobilization assay; assay type: cell-based; settings: agonist, Ca2+ assay, NIMH PDSP, n ≥ 2; read-out: EC50 ± SEM OTR
# T1 construct: NIMH PDSP (data provider)
# T1 sequence (P30559 1-389): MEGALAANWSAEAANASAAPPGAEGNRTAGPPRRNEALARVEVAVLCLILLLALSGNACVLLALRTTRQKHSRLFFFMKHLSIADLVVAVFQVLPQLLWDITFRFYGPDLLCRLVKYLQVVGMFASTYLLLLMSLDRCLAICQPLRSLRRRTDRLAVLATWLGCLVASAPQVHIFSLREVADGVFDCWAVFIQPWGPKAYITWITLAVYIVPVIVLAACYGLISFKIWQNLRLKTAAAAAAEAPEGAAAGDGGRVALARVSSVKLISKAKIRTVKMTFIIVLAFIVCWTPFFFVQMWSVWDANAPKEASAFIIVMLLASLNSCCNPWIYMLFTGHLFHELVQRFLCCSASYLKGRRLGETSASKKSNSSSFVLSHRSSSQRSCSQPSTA
# [2] = simulated gi fluid, pH 6.8
# [3] = simulated gi fluid, pH 1.2
Compound,EC50 [1],t1/2 SIF ([2]; pig),t1/2 SIF [2],t1/2 SGF [3]
"[H][C@@]12CCCN1C(=O)[C@]1([H])CCCN1C(=O)[C@H]([C@@H](C)CC)NC(=O)[C@H](CO)NC(=O)[C@H](CCCCN)NC(=O)[C@H]([C@@H](C)O)NC(=O)[C@@H]1CSSC[C@H](NC(=O)[C@H]([C@@H](C)CC)NC2=O)C(=O)N[C@@H](Cc2ccc(O)cc2)C(=O)N[C@@H]([C@@H](C)CC)C(=O)N[C@@H](CCC(N)=O)C(=O)N[C@@H](CC(N)=O)C(=O)N1 [SFTI-1(OT^[2-5])] (HELM PEPTIDE1{C.T.K.S.I.P.P.I.C.Y.I.Q.N}$PEPTIDE1,PEPTIDE1,1:R3-9:R3|PEPTIDE1,PEPTIDE1,1:R1-13:R2$$$V2.0)",> 30 µM,31 ± 3 min,,
"[H][C@@]12CCCN1C(=O)[C@H](CC)NC(=O)[C@H](CC(N)=O)NC(=O)[C@H](CCC(N)=O)NC(=O)[C@H]([C@@H](C)CC)NC(=O)[C@H](Cc1ccc(O)cc1)NC(=O)[C@@H]1CSSC[C@H](NC(=O)CNC(=O)[C@H](CC(C)C)NC2=O)C(=O)N[C@@H]([C@@H](C)O)C(=O)N[C@@H](CCCCN)C(=O)N[C@@H](CO)C(=O)N[C@@H]([C@@H](C)CC)C(=O)N2CCC[C@@]2([H])C(=O)N2CCC[C@@]2([H])C(=O)N[C@@H]([C@@H](C)CC)C(=O)N1 [SFTI-1(OT^[2-9])] (HELM PEPTIDE1{[Abu].P.L.G.C.T.K.S.I.P.P.I.C.Y.I.Q.N}$PEPTIDE1,PEPTIDE1,5:R3-13:R3|PEPTIDE1,PEPTIDE1,1:R1-17:R2$$$V2.0)",> 30 µM,3 ± 1 min,,
"[H][C@@]12CCCN1C(=O)[C@]1([H])CCCN1C(=O)[C@H]([C@@H](C)CC)NC(=O)[C@H](CO)NC(=O)[C@H](CCCCN)NC(=O)[C@H]([C@@H](C)O)NC(=O)[C@@H]1CSSC[C@H](NC(=O)[C@H]([C@@H](C)CC)NC2=O)C(=O)N[C@@H](Cc2ccc(O)cc2)C(=O)N[C@@H](Cc2ccccc2)C(=O)N[C@@H](CCC(N)=O)C(=O)N[C@@H](CC(N)=O)C(=O)N1 [SFTI-1(VP^[2-5])] (HELM PEPTIDE1{C.T.K.S.I.P.P.I.C.Y.F.Q.N}$PEPTIDE1,PEPTIDE1,1:R3-9:R3|PEPTIDE1,PEPTIDE1,1:R1-13:R2$$$V2.0)",> 30 µM,12 ± 1 min,,
"[H][C@@]12CCCN1C(=O)[C@H](CC)NC(=O)[C@H](CC(N)=O)NC(=O)[C@H](CCC(N)=O)NC(=O)[C@H](Cc1ccccc1)NC(=O)[C@H](Cc1ccc(O)cc1)NC(=O)[C@@H]1CSSC[C@H](NC(=O)CNC(=O)[C@H](CCCNC(=N)N)NC2=O)C(=O)N[C@@H]([C@@H](C)O)C(=O)N[C@@H](CCCCN)C(=O)N[C@@H](CO)C(=O)N[C@@H]([C@@H](C)CC)C(=O)N2CCC[C@@]2([H])C(=O)N2CCC[C@@]2([H])C(=O)N[C@@H]([C@@H](C)CC)C(=O)N1 [SFTI-1(VP^[2-9])] (HELM PEPTIDE1{[Abu].P.R.G.C.T.K.S.I.P.P.I.C.Y.F.Q.N}$PEPTIDE1,PEPTIDE1,5:R3-13:R3|PEPTIDE1,PEPTIDE1,1:R1-17:R2$$$V2.0)",> 30 µM,,<3 min,
"CC[C@H](C)[C@@H]1NC(=O)[C@H](CCC(=O)O)NC(=O)[C@@H]2CCCN2C(=O)[C@H](Cc2cnc[nH]2)NC(=O)[C@H](CC(=O)O)NC(=O)[C@H](Cc2ccc(O)cc2)NC(=O)[C@H](CC(N)=O)NC(=O)[C@@H]2CSSC[C@H](NC(=O)CN)C(=O)N[C@@H](CSSC[C@@H](C(N)=O)NC1=O)C(=O)N[C@@H](CO)C(=O)N[C@@H](CC(=O)O)C(=O)N1CCC[C@H]1C(=O)N[C@@H](CCCNC(=N)N)C(=O)N2 [Vc1.1, reference compound]",,144 ± 12 min,,>1440 min
"[H][C@@]12CCCN1C(=O)[C@@H]1CSSC[C@H](NC(=O)CNC(=O)[C@H](CC(C)C)NC(=O)[C@]3([H])CCCN3C(=O)[C@@H]3CSSC[C@H](NC(=O)CNC(=O)[C@H](CC(C)C)NC2=O)C(=O)N[C@@H](Cc2ccc(O)cc2)C(=O)N[C@@H]([C@@H](C)CC)C(=O)N[C@@H](CCC(N)=O)C(=O)N[C@@H](CC(N)=O)C(=O)N3)C(=O)N[C@@H](Cc2ccc(O)cc2)C(=O)N[C@@H]([C@@H](C)CC)C(=O)N[C@@H](CCC(N)=O)C(=O)N[C@@H](CC(N)=O)C(=O)N1 [c(OT)2] (HELM PEPTIDE1{C.P.L.G.C.Y.I.Q.N.C.P.L.G.C.Y.I.Q.N}$PEPTIDE1,PEPTIDE1,1:R3-14:R3|PEPTIDE1,PEPTIDE1,5:R3-10:R3|PEPTIDE1,PEPTIDE1,1:R1-18:R2$$$V2.0)",,,<3 min,
"[H][C@@]12CCCN1C(=O)[C@@H]1CSSC[C@H](NC(=O)CNC(=O)[C@H](CC(C)C)NC(=O)[C@]3([H])CCCN3C(=O)[C@@H]3CSSC[C@H](NC(=O)CNC(=O)[C@H](CCCNC(=N)N)NC2=O)C(=O)N[C@@H](Cc2ccc(O)cc2)C(=O)N[C@@H]([C@@H](C)CC)C(=O)N[C@@H](CCC(N)=O)C(=O)N[C@@H](CC(N)=O)C(=O)N3)C(=O)N[C@@H](Cc2ccc(O)cc2)C(=O)N[C@@H](Cc2ccccc2)C(=O)N[C@@H](CCC(N)=O)C(=O)N[C@@H](CC(N)=O)C(=O)N1 [c(OT-VP)] (HELM PEPTIDE1{C.P.L.G.C.Y.F.Q.N.C.P.R.G.C.Y.I.Q.N}$PEPTIDE1,PEPTIDE1,1:R3-14:R3|PEPTIDE1,PEPTIDE1,5:R3-10:R3|PEPTIDE1,PEPTIDE1,1:R1-18:R2$$$V2.0)",,,<3 min,
"[H][C@@]12CCCN1C(=O)[C@@H]1CSSC[C@H](NC(=O)CNC(=O)[C@H](CCCNC(=N)N)NC(=O)[C@]3([H])CCCN3C(=O)[C@@H]3CSSC[C@H](NC(=O)CNC(=O)[C@H](CCCNC(=N)N)NC2=O)C(=O)N[C@@H](Cc2ccc(O)cc2)C(=O)N[C@@H](Cc2ccccc2)C(=O)N[C@@H](CCC(N)=O)C(=O)N[C@@H](CC(N)=O)C(=O)N3)C(=O)N[C@@H](Cc2ccc(O)cc2)C(=O)N[C@@H](Cc2ccccc2)C(=O)N[C@@H](CCC(N)=O)C(=O)N[C@@H](CC(N)=O)C(=O)N1 [c(VP)2] (HELM PEPTIDE1{C.P.R.G.C.Y.F.Q.N.C.P.R.G.C.Y.F.Q.N}$PEPTIDE1,PEPTIDE1,1:R3-14:R3|PEPTIDE1,PEPTIDE1,5:R3-10:R3|PEPTIDE1,PEPTIDE1,1:R1-18:R2$$$V2.0)",,,<3 min,

# — publication PMC9059125 (Journal of Medicinal Chemistry, 2022)
